The source of these data is article PMC6222323, “Exploiting the Chalcone Scaffold to Develop Multifunctional Agents for Alzheimer’s Disease” (Molecules : A Journal of Synthetic Chemistry and Natural …, 2018).

The target in data set [1] is human recombinant AChE (hAChE) (Homo sapiens, UniProt P22303). In words: biochemical. Conditions: for SI: selectivity index for AChE: calculated as IC50 hBuChE/hAChE ratio; for IC50: read-out: IC50 (µM) ± SEM hAChE. It is filed as biochemical.
The target in data set [2] is BuChE from human serum (hBuChE) (Homo sapiens, UniProt P06276). In words: biochemical. The data set is classed as biochemical. Conditions: for IC50: read-out: IC50 (µM) ± SEM hBuChE.
The subject of data set [3] is SH-SY5Y cells. The data set is classed as cell-based. The settings on record: 24 h treatment, 2.5–80 µM tested, MTT assay, SH-SY5Y cells (data not shown). (Tetrazolium assays rely on reduction of a dye to a coloured formazan, in cell work by metabolically active cells.)
Data set [4] relates to SH-SY5Y cells. In words: Antioxidant activity, ROS formation induced by t-BuOOH (H2DCF-DA probe). The data set is classed as cell-based. The settings on record: Homo sapiens, 1.25 µM compound for 24 h, then t-BuOOH 100 µM for 30 min, read-out: inhibition percentage in ROS formation induced by t-BuOOH.
For data set [5], the system named is SH-SY5Y cells. In words: Glutathione (GSH) levels (MCB probe). It is filed as cell-based, human. Conditions: 1.25 µM compound for 24 h, vs. control.
Data set [6] concerns SH-SY5Y cells. In words: Neuroprotective activity toward Aβ1–42 oligomers, MTT formazan exocytosis assay. The data set is classed as cell-based, human. Conditions: 1.25 µM compound with OAβ1–42 10 µM for 4 h.
The mark [7] stands for this setting: human recombinant AChE, 20 min preincubation at 37 °C, pH 8.0, n.a. = not active, inhibition lower than 15% at the highest tested concentration.
The mark [8] stands for this setting: BuChE from human serum, 20 min preincubation at 37 °C, pH 8.0, n.a. = not active, inhibition lower than 15% at the highest tested concentration.

BuChE from human serum (hBuChE), sequence (P06276 29-602): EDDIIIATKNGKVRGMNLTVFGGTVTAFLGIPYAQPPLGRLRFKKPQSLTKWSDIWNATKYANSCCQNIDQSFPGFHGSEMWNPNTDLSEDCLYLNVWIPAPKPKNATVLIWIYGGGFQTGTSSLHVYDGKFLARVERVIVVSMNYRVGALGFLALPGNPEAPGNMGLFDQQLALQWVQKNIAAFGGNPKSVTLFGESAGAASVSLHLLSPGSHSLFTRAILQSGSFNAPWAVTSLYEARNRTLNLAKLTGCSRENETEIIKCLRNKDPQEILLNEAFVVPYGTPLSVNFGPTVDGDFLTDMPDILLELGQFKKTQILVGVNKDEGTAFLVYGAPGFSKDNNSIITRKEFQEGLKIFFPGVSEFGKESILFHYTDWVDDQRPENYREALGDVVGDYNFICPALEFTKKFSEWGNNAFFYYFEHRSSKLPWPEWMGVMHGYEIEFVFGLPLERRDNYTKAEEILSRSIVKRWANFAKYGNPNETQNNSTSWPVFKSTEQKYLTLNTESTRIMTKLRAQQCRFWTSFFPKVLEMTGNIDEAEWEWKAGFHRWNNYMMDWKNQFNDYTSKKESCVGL
human recombinant AChE (hAChE), sequence (P22303 32-614): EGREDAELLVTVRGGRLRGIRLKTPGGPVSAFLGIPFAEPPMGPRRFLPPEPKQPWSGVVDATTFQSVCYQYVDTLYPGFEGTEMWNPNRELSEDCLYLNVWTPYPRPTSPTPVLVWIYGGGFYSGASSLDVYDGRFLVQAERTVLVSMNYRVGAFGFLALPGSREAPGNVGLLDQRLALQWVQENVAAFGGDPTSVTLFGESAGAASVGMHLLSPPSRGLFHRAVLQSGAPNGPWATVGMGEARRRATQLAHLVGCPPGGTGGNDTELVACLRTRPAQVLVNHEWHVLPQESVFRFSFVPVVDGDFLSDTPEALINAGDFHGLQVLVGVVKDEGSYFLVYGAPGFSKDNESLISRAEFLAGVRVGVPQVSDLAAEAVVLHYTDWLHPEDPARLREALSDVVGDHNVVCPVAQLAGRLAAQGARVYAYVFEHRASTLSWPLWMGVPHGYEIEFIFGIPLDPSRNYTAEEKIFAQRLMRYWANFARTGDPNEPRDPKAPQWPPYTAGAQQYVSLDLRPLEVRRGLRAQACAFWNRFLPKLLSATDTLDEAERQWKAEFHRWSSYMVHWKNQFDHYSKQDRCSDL

By IC50 is commonly meant the concentration at which inhibition is half-maximal. Usually inhibition stands for the share of the control response that was lost under treatment. Consider `CCN(CC)CCCOc1ccc(C(=O)C=Cc2ccc(OCCCCCCCN(C)Cc3ccccc3)cc2)cc1` [compound 4, 3-(4-((7-(Benzyl(methyl)amino)heptyl)oxy)phenyl)-1-(4-(3-(diethylamino)propoxy)phenyl)-prop-2-en-1-one], for which, in data set [1], the “SI: selectivity index for AChE” value is on record as 2.6. Further, the IC50 in data set [1] (setting [7]) is 0.92 ± 0.07 µM; in data set [2] (setting [8]), 2.38 ± 0.05 µM. Further, the “concentrations that did not affect neuronal viability” value in data set [3] is recorded as “up to 2.5 µM”. Also, the inhibition at 1.25 µM in data set [4] is 27%. Further, the “effect on GSH levels” value in data set [5] was “significantly increased GSH levels”. The “neuroprotective activity toward OAβ1–42 induced toxicity (neuronal viability)” value in data set [6] is “partially counteracted the neurotoxic effects”.

As to `COc1ccc(C(=O)C=Cc2ccc(OCCCCCCCN(C)Cc3ccccc3)cc2)cc1` [compound 2, 3-(4-((7-(Benzyl(methyl)amino)heptyl)oxy)phenyl)-1-(4-methoxyphenyl)prop-2-en-1-one], the “SI: selectivity index for AChE” value in data set [1] was 0.03. The IC50 in data set [1] (setting [7]) was found to be 98.5 ± 8.8 µM; in data set [2] (setting [8]), 2.85 ± 0.7 µM. Besides, in data set [3], the “concentrations that did not affect neuronal viability” value was “up to 2.5 µM”. Besides, the inhibition at 1.25 µM in data set [4] came to 16%. The “effect on GSH levels” value in data set [5] is listed as “decreased GSH basal levels”. Further, the “neuroprotective activity toward OAβ1–42 induced toxicity (neuronal viability)” value in data set [6] is on record as “reinforced the neurotoxic effects”.

For the compound `CN(CCCCCCCOc1ccc(C=CC(=O)c2ccc(OCCN3CCCCC3)cc2)cc1)Cc1ccccc1` [compound 7, 3-(4-((7-(Benzyl(methyl)amino)heptyl)oxy)phenyl)-1-(4-(2-(piperidin-1-yl)ethoxy)phenyl)prop-2-en-1-one], the “SI: selectivity index for AChE” value in data set [1] is listed as 15.8. Further, the figures for the IC50 in data set [1] (setting [7]) and in data set [2] (setting [8]) were 1.25 ± 0.06 µM and 19.7 ± 0.6 µM, respectively.

As to `CN(CCCCCCCOc1ccc(C=CC(=O)c2ccc(OCCN3CCC(c4ccccc4)CC3)cc2)cc1)Cc1ccccc1` [compound 10, 3-(4-((7-(Benzyl(methyl)amino)heptyl)oxy)phenyl)-1-(4-(2-(4-phenylpiperidin-1-yl)ethoxy)-phenyl)prop-2-en-1-one], the “IC50 (µM) ± SEM hAChE” value in data set [1] (setting [7]) was “inactive”. Also, in data set [2] (setting [8]), the “IC50 (µM) ± SEM hBuChE” value was “inactive”.

Regarding `CN(CCCCCCCOc1ccc(C=CC(=O)c2ccc(OCCN3CCC(n4c(=O)[nH]c5ccccc54)CC3)cc2)cc1)Cc1ccccc1` [compound 9, 1-(1-(2-(4-(3-(4-((7-(Benzyl(methyl)amino)heptyl)oxy)phenyl)acryloyl)phenoxy)ethyl)-piperidin-4-yl)-1,3-dihydro-2H-benzo[d]imidazol-2-one], the “SI: selectivity index for AChE” value in data set [1] is 0.29. Moreover, the IC50 in data set [1] (setting [7]) stood at 13.5 ± 2.3 µM; in data set [2] (setting [8]) it was 3.93 ± 0.2 µM.

Take `CCN(CC)CCOc1ccc(C(=O)C=Cc2ccc(OCCCCCCCN(C)Cc3ccccc3)cc2)cc1` [compound 3, 3-(4-((7-(Benzyl(methyl)amino)heptyl)oxy)phenyl)-1-(4-(2-(diethylamino)ethoxy)phenyl)-prop-2-en-1-one]: the “SI: selectivity index for AChE” value in data set [1] is reported as 28.4. For the same compound, the IC50 was found to be 0.7 ± 0.09 µM in data set [1] (setting [7]) and 19.9 ± 5.5 µM in data set [2] (setting [8]).

In the case of `CCN(CC)CCOc1ccc(C(=O)CCc2ccc(OCCCCCCCN(C)Cc3ccccc3)cc2)cc1` [compound 16, 3-(4-((7-(Benzyl(methyl)amino)heptyl)oxy)phenyl)-1-(4-(2-(diethylamino)ethoxy)phenyl)-propan-1-one], the “SI: selectivity index for AChE” value in data set [1] is listed as 3.25. The IC50 worked out at 6.21 ± 0.32 µM in data set [1] (setting [7]) and 20.2 ± 1.7 µM in data set [2] (setting [8]).

Consider `CCN(CC)CCCOc1ccc(C(=O)CCc2ccc(OCCCCCCCN(C)Cc3ccccc3)cc2)cc1` [compound 17, 3-(4-((7-(Benzyl(methyl)amino)heptyl)oxy)phenyl)-1-(4-(3-(diethylamino)propoxy)phenyl)-propan-1-one], for which the “SI: selectivity index for AChE” value in data set [1] is on record as 3.04. Besides, the IC50 came to 1.66 ± 0.09 µM in data set [1] (setting [7]) and 5.04 ± 0.3 µM in data set [2] (setting [8]). Moreover, the “concentrations that did not affect neuronal viability” value in data set [3] is on record as “up to 2.5 µM”. Moreover, the inhibition at 1.25 µM in data set [4] is 23%. The “effect on GSH levels” value in data set [5] is “significantly increased GSH levels”. Also, the “neuroprotective activity toward OAβ1–42 induced toxicity (neuronal viability)” value in data set [6] was “No neuroprotective effect”.

Turning to `COc1cccc(C(=O)C=Cc2ccc(OCCCCCCCN(C)Cc3ccccc3)cc2)c1` [compound 12, 3-(4-((7-(Benzyl(methyl)amino)heptyl)oxy)phenyl)-1-(3-methoxyphenyl)prop-2-en-1-one], the “SI: selectivity index for AChE” value in data set [1] is 0.08. Also, the figures for the IC50 in data set [1] (setting [7]) and in data set [2] (setting [8]) were 105 ± 17 µM and 8.58 ± 0.35 µM, respectively.

In the case of `CCN(CC)CCCCOc1ccc(C(=O)CCc2ccc(OCCCCCCCN(C)Cc3ccccc3)cc2)cc1` [compound 18, 3-(4-((7-(Benzyl(methyl)amino)heptyl)oxy)phenyl)-1-(4-(4-(diethylamino)butoxy)phenyl)-propan-1-one], the “SI: selectivity index for AChE” value in data set [1] is reported as 5.04. The IC50 was found to be 2.46 ± 0.11 µM in data set [1] (setting [7]) and 12.4 ± 2.4 µM in data set [2] (setting [8]).

With `CCN(CC)CCCCOc1ccc(C(=O)C=Cc2ccc(OCCCCCCCN(C)Cc3ccccc3)cc2)cc1` [compound 5, 3-(4-((7-(Benzyl(methyl)amino)heptyl)oxy)phenyl)-1-(4-(4-(diethylamino)butoxy)phenyl)prop-2-en-1-one], the “SI: selectivity index for AChE” value in data set [1] is recorded as 3.5. Further, the IC50 turned out to be 1.06 ± 0.08 µM in data set [1] (setting [7]) and 3.7 ± 0.08 µM in data set [2] (setting [8]).

As to `CCN(CC)CCCOc1cccc(C(=O)C=Cc2ccc(OCCCCCCCN(C)Cc3ccccc3)cc2)c1` [compound 14, 3-(4-((7-(Benzyl(methyl)amino)heptyl)oxy)phenyl)-1-(3-(3-(diethylamino)propoxy)phenyl)-prop-2-en-1-one], the “SI: selectivity index for AChE” value in data set [1] was 0.31. The IC50 is 5.78 ± 0.67 µM in data set [1] (setting [7]) and 1.82 ± 0.05 µM in data set [2] (setting [8]).

`CCN(CC)CCOc1cccc(C(=O)C=Cc2ccc(OCCCCCCCN(C)Cc3ccccc3)cc2)c1` [compound 13, 3-(4-((7-(Benzyl(methyl)amino)heptyl)oxy)phenyl)-1-(3-(2-(diethylamino)ethoxy)phenyl)-prop-2-en-1-one]: in data set [1], the “SI: selectivity index for AChE” value was 0.62. The IC50 in data set [1] (setting [7]) worked out at 1.47 ± 0.11 µM; in data set [2] (setting [8]) it was 0.92 ± 0.04 µM.

`CN(CCCCCCCOc1ccc(C=CC(=O)c2ccc(OCCN3CCc4ccccc4C3)cc2)cc1)Cc1ccccc1` [compound 8, 3-(4-((7-(Benzyl(methyl)amino)heptyl)oxy)phenyl)-1-(4-(2-(3,4-dihydroisoquinolin-2(1H)-yl)ethoxy)phenyl)prop-2-en-1-one]: the “SI: selectivity index for AChE” value in data set [1] is given as 0.23. Also, the IC50 in data set [1] (setting [7]) was found to be 16.5 ± 2.6 µM; in data set [2] (setting [8]) it was 3.87 ± 0.3 µM.

In the case of `CCN(CC)Cc1ccc(C(=O)C=Cc2ccc(OCCCCCCCN(C)Cc3ccccc3)cc2)cc1` [compound 1, 3-(4-((7-(Benzyl(methyl)amino)heptyl)oxy)phenyl)-1-(4-((diethylamino)methyl)phenyl)prop-2-en-1-one], the “SI: selectivity index for AChE” value in data set [1] is recorded as 3.14. Further, the IC50 was 2.81 ± 0.29 µM in data set [1] (setting [7]) and 8.83 ± 0.58 µM in data set [2] (setting [8]). In addition, the “fold increase in hAChE inhibitory activity” value in data set [1] (methylendiethylamino group in place of the methoxy group (compounds 2, 12)) is 35 fold.

For `CN(CCCCCCCOc1ccc(C=CC(=O)c2ccc(OCCN3CCC(O)(c4ccc(Cl)cc4)CC3)cc2)cc1)Cc1ccccc1` [compound 11, 3-(4-((7-(Benzyl(methyl)amino)heptyl)oxy)phenyl)-1-(4-(2-(4-(4-chlorophenyl)-4-hydroxypiperidin-1-yl)ethoxy)phenyl)prop-2-en-1-one], the “IC50 (µM) ± SEM hAChE” value in data set [1] (pH 8) is “inactive”. Also, the “IC50 (µM) ± SEM hBuChE” value in data set [2] (pH 8) was “inactive”.

For the compound `CN(CCCCCCCOc1ccc(C=CC(=O)c2ccc(OCCN3CCOCC3)cc2)cc1)Cc1ccccc1` [compound 6, 3-(4-((7-(Benzyl(methyl)amino)heptyl)oxy)phenyl)-1-(4-(2-morpholinoethoxy)phenyl)prop-2-en-1-one], in data set [1], the “SI: selectivity index for AChE” value is given as 0.021. The IC50 in data set [1] (setting [7]) worked out at 511 ± 37 µM; in data set [2] (setting [8]), 11 ± 0.5 µM. In data set [1] (morpholino vs piperidine derivative), the “fold worse hAChE inhibition than compound 7” value was “about 500 fold”.
